Assay results as given in ChEMBL document CHEMBL1138988, “Assessment of in vitro and in vivo activities in the National Cancer Institute's anticancer screen with respect to chemical structure, target specificity, and mechanism of action” (2006).
The source made the active and inactive calls. The rule behind the calls is not given here.

Tests used:
Mus musculus = experiment: Activity against NCI60 cell line xenograft in nude mouse by HF assay; type: functional
[1] = system: Panel NCI-60 (60 carcinoma cell lines); experiment: Antiproliferative activity against NCI60 cell line; type: functional, Homo sapiens

SMILES | Activity (Mus musculus) | pGI50 [1]
CCC1(O)C(=O)OCc2c1cc1n(c2=O)Cc2cc3ccccc3nc2-1 (stereo unspecified) | 13.67 | 5.99
O=C(OC12CC3CC(CC(C3)C1)C2)c1ccc(NCc2cc(O)ccc2O)cc1 | 10.83 | 5.44
Nc1ccn([C@@H]2O[C@H](CO)[C@@H](O)[C@@H]2O)c(=O)n1 [CYTARABINE] | 11 | 5
CN(Cc1cnc2nc(N)nc(N)c2n1)c1ccc(C(=O)N[C@@H](CCC(=O)O)C(=O)O)cc1 [METHOTREXATE] | 16.8 | 5.55
CCCCCCC(O)C(O)CCC(O)C1CCC(CCCCC(O)CC2=CC(C)OC2=O)O1 (stereo unspecified) [ACETOGENINS] | inactive | 5.53
COc1cccc2c1C(=O)c1c(O)c3c(c(O)c1C2=O)CC(O)(C(=O)CO)CC3OC1CC(N)C(O)C(C)O1 (stereo unspecified) | 20.67 | 6.53
N/C(S)=N/N=C/c1ccc(O)cn1 | 15 | 5.92
COc1cc2c(c(OC)c1OC)-c1ccc(OC)c(=O)cc1[C@@H](NC(C)=O)CC2 [COLCHICINE] | 19.6 | 5.8
